From patent US9394263B2, “Substituted hetero-azepinones” (priority 2012, dated 2016)
Where a name gives a salt, the structure may show the parent alone. Read-outs that look alike come from different tables or passages of the source.

Legend:
BIR2 domain of XIAP = BIR2 domain of XIAP (Homo sapiens (Human), UniProt P98170, C202A/C213G); assay: TR-FRET assay for BIR2: inhibition of binding of XIAP BIR2 domain to Peptide A (SMAC-derived peptide);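 note: percent inhibition measured across a concentration series of each compound, from which the IC50 was derived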
Description: TR-FRET Assay for BIR2 and BIR3
The peptides were labeled with the fluorescent tags FITC or TAMRA and Kd values were determined by fluorescence polarization assay.
The peptide sequence was derivatized with biotin to provide [sequence]-(8-biotin)-OH 1:2 TFA as the substrate for the TR-FRET assay.
The XIAP protein sequence was obtained from the SWISS-PROT protein sequence database and the BIR2 and BIR3 domains were derived from that.
Percentage of inhibition at each concentration was determined to generate an IC50 value for each test compound.

BIR3 domain of XIAP = BIR3 domain of XIAP (Homo sapiens (Human), UniProt P98170); assay: TR-FRET assay for BIR3: inhibition of binding of XIAP BIR3 domain to Peptide A (SMAC-derived peptide)
Sequence of BIR3 domain of XIAP (P98170 241-356 with tags or gaps limits assumed): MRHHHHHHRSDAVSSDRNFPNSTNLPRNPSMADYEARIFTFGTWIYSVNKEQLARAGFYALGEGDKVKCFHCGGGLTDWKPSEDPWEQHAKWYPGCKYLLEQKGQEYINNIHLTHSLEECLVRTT

Sequence of BIR2 domain of XIAP (P98170 other isoform, or with tags, fused parts or gaps, stated change not applied): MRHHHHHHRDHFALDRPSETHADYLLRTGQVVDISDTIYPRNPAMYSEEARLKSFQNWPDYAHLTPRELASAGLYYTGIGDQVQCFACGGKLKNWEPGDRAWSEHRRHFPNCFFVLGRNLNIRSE

SMILES | IC50 (BIR2 domain of XIAP; read-out: BIR2 IC50) [nM] | also measured
CN[C@@H](C)C(=O)N[C@H]1C(=O)N(Cc2c(OC)ccc3cc(Br)ccc23)c2ccccc2OC12CCOCC2 [Example 1f] |  | IC50 (BIR2 domain of XIAP): 4360 nM
CN[C@@H](C)C(=O)N[C@@H]1C(=O)N(Cc2c(OC)ccc3cc(Br)ccc23)c2ccccc2OC12CCOCC2 [Example 1g] |  | IC50 (BIR2 domain of XIAP): 65 nM
CN[C@@H](C)C(=O)N[C@@H]1C(=O)N(Cc2c(OC)cnc3ccccc23)c2ccccc2OC12CCOCC2 [Example 1r] |  | IC50 (BIR2 domain of XIAP): 141 nM
CC[C@H](NC)C(=O)N[C@@H]1C(=O)N(Cc2c(OC)ccc3cc(Br)ccc23)c2ccc(F)cc2OC12CCOCC2 [Example 16, (2S)-N-(5-((6-Bromo-2-methoxynaphthalen-1-yl)methyl)-(3S)-8-fluoro-4-oxo-2′,3′,5′,6′-tetrahydro-3H-spiro[benzo[b][1,4]oxazepine-2,4′-pyran]-3-yl)-2-(methylamino)butanamide hydrochloride] |  | IC50 (BIR3 domain of XIAP; read-out: BIR3 IC50): > 50000 nM
[2H]C([2H])([2H])N[C@@H](C)C(=O)N[C@@H]1C(=O)N(Cc2c(OC)ccc3cc(Br)ccc23)c2ccccc2OC12CCOCC2 [Example 19, (2S)-N-(5-((6-Bromo-2-methoxynaphthalen-1-yl)methyl)-(3S)-4-oxo-2′,3′,5′,6′-tetrahydro-3H-spiro[benzo[b][1,4]oxazepine-2,4′-pyran]-3-yl)-2-(methyl-d3-amino)propanamide hydrochloride] |  | IC50 (BIR3 domain of XIAP): 22900 nM
CN[C@@H](C)C(=O)N[C@H]1CSc2c(NC(=O)COCCOC)cccc2N(Cc2cccc3ccccc23)C1=O [Example 22, (S)-N-{(R)-9-[2-(2-Methoxy-ethoxy)-acetylamino]-5-naphthalen-1-ylmethyl-4-oxo-2,3,4,5-tetrahydro-benzo[b][1,4]thiazepin-3-yl}-2-methylamino-propionamide hydrochloride] |  | IC50 (BIR3 domain of XIAP; read-out: BIR3 IC50): > 54800 nM
CN[C@@H](C)C(=O)N[C@H]1CSc2c(NC(=O)C3CCN(C(C)=O)CC3)cccc2N(Cc2cccc3ccccc23)C1=O [Example 23, 1-Acetyl-piperidine-4-carboxylic acid [(R)-3-((S)-2-methylamino-propionylamino)-5-naphthalen-1-ylmethyl-4-oxo-2,3,4,5-tetrahydro-benzo[b][1,4]thiazepin-9-yl]-amide] |  | IC50 (BIR3 domain of XIAP): > 54800 nM; IC50 (BIR2 domain of XIAP): 373 nM
CN[C@@H](C)C(=O)N[C@H]1COc2ccccc2N(Cc2c(OC)ccc3ccccc23)C1=O [Example 29b] | 198 | 
CN[C@@H](C)C(=O)N[C@H]1COc2ccccc2N(Cc2c(OC)ccc3cc(C(=O)OC)ccc23)C1=O [Example 31, Methyl 6-methoxy-5-(((S)-3-((S)-2-(methylamino)propanamido)-4-oxo-3,4-dihydrobenzo[b][1,4]oxazepin-5(2H)-yl)methyl)-2-naphthoate trifluoroacetate] | 189 | 
CN[C@@H](C)C(=O)N[C@H]1COc2ccccc2N(Cc2c(OC)ccc3cc(C(=O)O)ccc23)C1=O [Example 32, 6-Methoxy-5-(((S)-3-((S)-2-(methylamino)propanamido)-4-oxo-3,4-dihydrobenzo[b][1,4]oxazepin-5(2H)-yl)methyl)-2-naphthoic acid trifluoroacetate] | 55 | 
CN[C@@H](C)C(=O)N[C@@H]1C(=O)N(Cc2c(OC)ccc3cc(Br)ccc23)c2ccc(C)cc2O[C@H]1C [Example 39, (S)-N-((2S,3S)-5-((6-Bromo-2-methoxynaphthalen-1-yl)methyl)-2,8-dimethyl-4-oxo-2,3,4,5-tetrahydrobenzo[b][1,4]oxazepin-3-yl)-2-(methylamino)propanamide trifluoroacetate] | 54 | 
CN[C@@H](C)C(=O)N[C@H]1COc2ccc(C(F)(F)F)cc2N(Cc2c(OC)ccc3cc(Br)ccc23)C1=O [Example 42, (S)-N-((S)-5-((6-Bromo-2-methoxynaphthalen-1-yl)methyl)-4-oxo-7-(trifluoromethyl)-2,3,4,5-tetrahydrobenzo[b][1,4]oxazepin-3-yl)-2-(methylamino)propanamide trifluoroacetate] | 57 | 
CN[C@@H](C)C(=O)N[C@@H]1C(=O)N(Cc2c(OC)ccc3cc(Br)ccc23)c2cc(C(F)(F)F)ccc2O[C@H]1C [Example 43, (S)-N-[(6S,7S)-9-(6-Bromo-2-methoxy-naphthalen-1-ylmethyl)-6-methyl-8-oxo-2-trifluoromethyl-6,7,8,9-tetrahydro-5-oxa-9-aza-benzocyclohepten-7-yl]-2-methylamino-propionamide trifluoroacetate] | 92 | 
CN[C@@H](C)C(=O)N[C@H]1COc2ccccc2N(Cc2cccc(Cl)c2)C1=O [Example 46, (S)-N-((S)-5-(3-Chlorobenzyl)-4-oxo-2,3,4,5-tetrahydrobenzo[13,][1,4]oxazepin-3-yl)-2-(methylamino)propanamide] | 3110 | 
CN[C@@H](C)C(=O)N[C@H]1COc2c(C(=O)O)cccc2N(Cc2c(OC)ccc3cc(Br)ccc23)C1=O [Example 48, (S)-5-((6-bromo-2-methoxynaphthalen-1-yl)methyl)-3-((S)-2-(methylamino)propanamido)-4-oxo-2,3,4,5-tetrahydrobenzo[b][1,4]oxazepine-9-carboxylic acid trifluoroacetate] | 89 | 
CN[C@@H](C)C(=O)N[C@H]1COc2c(C(=O)NCCC(=O)O)cccc2N(Cc2c(OC)ccc3cc(Br)ccc23)C1=O [Example 50, 3-{[(S)-9-(6-Bromo-2-methoxy-naphthalen-1-ylmethyl)-74S)-2-methylamino-propionylamino)-8-oxo-6,7,8,9-tetrahydro-5-oxa-9-aza-benzocycloheptene-4-carbonyl]-amino}-propionic acid trifluoroacetate] | 134 | 
CN[C@@H](C)C(=O)N[C@H]1COc2c(C(=O)NCc3ccc(C(=O)OC)cc3)cccc2N(Cc2c(OC)ccc3cc(Br)ccc23)C1=O [Example 51, 4-({[(S)-9-(6-Bromo-2-methoxy-naphthalen-1-ylmethyl)-7-((S)-2-methylamino-propionylamino)-8-oxo-6,7,8,9-tetrahydro-5-oxa-9-aza-benzocycloheptene-4-carbonyl]-amino}-methyl)-benzoic acid methyl ester] | 410 | 
CN[C@@H](C)C(=O)N[C@H]1COc2c(C(=O)O)cccc2N(Cc2c(OC)ccc3cc(C(=O)O)ccc23)C1=O [Example 52, (S)-5-((6-Carboxy-2-methoxynaphthalen-1-yl)methyl)-3-((S)-2-(methylamino)propanamido)-4-oxo-2,3,4,5-tetrahydrobenzo[b][1,4]oxazepine-9-carboxylic acid trifluoroacetate] | 59 | 
CN[C@@H](C)C(=O)N[C@H]1COc2c(C(=O)O)cccc2N(Cc2ccc(Br)c3ccccc23)C1=O [Example 54, (S)-5-((4-Bromonaphthalen-1-yl)methyl)-3-((S)-2-(methylamino)propanamido)-4-oxo-2,3,4,5-tetrahydrobenzo[b][1,4]oxazepine-9-carboxylic acid trifluoroacetate] | 649 | 
CN[C@@H](C)C(=O)N[C@H]1COc2c(C(=O)N3CCN(CCO)CC3)cccc2N(Cc2ccc(Br)c3ccccc23)C1=O [Example 55, (S)-N-((S)-5-((4-Bromonaphthalen-1-yl)methyl)-9-(4-(2-hydroxyethyl)piperazine-1-carbonyl)-4-oxo-2,3,4,5-tetrahydrobenzo[b][1,4]oxazepin-3-yl)-2-(methylamino)propanamide] | 957 | 
CN[C@@H](C)C(=O)N[C@H]1COc2c(C(=O)N3CCN(CCCO)CC3)cccc2N(Cc2ccc(Br)c3ccccc23)C1=O [Example 56, (S)-N-((S)-5-((4-Bromonaphthalen-1-yl)methyl)-9-(4-(3-hydroxypropyl)piperazine-1-carbonyl)-4-oxo-2,3,4,5-tetrahydrobenzo[b][1,4]oxazepin-3-yl)-2-(methylamino)propanamide] | 1600 | 
CN[C@@H](C)C(=O)N[C@H]1COc2ccccc2N(Cc2cc(=O)n(C)c3ccc(F)cc23)C1=O [Example 61, (S)-N-((S)-5-((6-Fluoro-1-methyl-2-oxo-1,2-dihydroquinolin-4-yl)methyl)-4-oxo-2,3,4,5-tetrahydrobenzo[b][1,4]oxazepin-3-yl)-2-(methylamino)propanamide] | 686 | 
CN[C@@H](C)C(=O)N[C@H]1COc2ccccc2N(Cc2nn(-c3ccccc3C#N)c3cc(Br)ccc23)C1=O [Example 72, (S)-N-((S)-5-((6-Bromo-1-(2-cyanophenyl)-1H-indazol-3-yl)methyl)-4-oxo-2,3,4,5-tetrahydrobenzo[b][1,4]oxazepin-3-yl)-2-(methylamino)propanamide trifluoroacetate] | 281 | IC50 (BIR3 domain of XIAP; read-out: BIR3 IC50): > 54800 nM
CCN[C@@H](C)C(=O)N[C@@H]1C(=O)N(Cc2nn(-c3ccccc3C#N)c3ccccc23)c2ccccc2O[C@H]1C [Example 74, (2S)-N-((2S,3S)-5-((1-(2-Cyanophenyl)-1H-indazol-3-yl)methyl)-2-methyl-4-oxo-2,3,4,5-tetrahydrobenzo[b][1,4]oxazepin-3-yl)-2-(ethylamino)propanamide trifluoroacetate] | 146 | IC50 (BIR3 domain of XIAP; read-out: BIR3 IC50): > 54800 nM
CN[C@@H](C)C(=O)N[C@@H]1C(=O)N(Cc2nn(-c3ccc(C(=O)O)cc3C#N)c3ccccc23)c2ccccc2O[C@H]1C [Example 80, 3-Cyano-4-(3-(((2S,3S)-2-methyl-3-((S)-2-(methylamino)propanamido)-4-oxo-3,4-dihydrobenzo[b][1,4]oxazepin-5(2H)-yl)methyl)-1H-indazol-1-yl)benzoic acid trifluoroacetate] |  | IC50 (BIR2 domain of XIAP): 118 nM
CC[C@H](NCCO)C(=O)N[C@H]1COc2ccccc2N(Cc2c(OC)ccc3cc(Br)ccc23)C1=O [Example 83, (S)-N-((S)-5-((6-Bromo-2-methoxynaphthalen-1-yl)methyl)-4-oxo-2,3,4,5-tetrahydrobenzo[b][1,4]oxazepin-3-yl)-2-(2-hydroxyethylamino)butanamide trifluoroacetate] | 44 | 
CN[C@@H](C)C(=O)N[C@H]1COc2c(cccc2C(F)(F)F)N(Cc2noc3ccccc23)C1=O [Example 90, (S)-N-((S)-5-(Benzo[d]isoxazol-3-ylmethyl)-4-oxo-9-(trifluoromethyl)-2,3,4,5-tetrahydrobenzo[b][1,4]oxazepin-3-yl)-2-(methylamino)propanamide hydrochloride] | 490 | 
